Source: paper PMC5449446, “Metabolic Value Chemoattractants Are Preferentially Recognized at Broad Ligand Range Chemoreceptor of Pseudomonas putida KT2440” (Frontiers in Microbiology, 2017)

Legend:
McpS = target: McpS; parameters: method as in ref (7-9) (a number printed in a supplementary file, which may have a reference list of its own: not looked up in the article's list); details: ITC, purified recombinant LBD; ref (7-9); cited from earlier work
McpP = target: McpP; parameters: method as in ref (6) (a number printed in a supplementary file, which may have a reference list of its own: not looked up in the article's list); details: ITC, purified recombinant LBD; ref (6); cited from earlier work
Tar-LBD = tested on: Tar-LBD; parameters: method as in Milligan and Koshland, 1993; details: estimated; ref Milligan and Koshland, 1993; cited from earlier work
MCP2983 = tested on: MCP2983; parameters: method as in Ni et al., 2015; details: ref Ni et al., 2015; cited from earlier work
PcaY_PP-LBD = target: T1, PcaY_PP-LBD (Pseudomonas putida, UniProt Q88JK6); test: biochemical; type: binding, Pseudomonas putida KT2440; details: ITC at 25°C, 25 μM protein, One Binding Site model; means and SD of three experiments
T1 construct: His-tag (from the pET28b vector; inferred from NdeI/BamHI cloning and HisTrap purification) (N); made in house; host or cells: Escherichia coli BL21 (DE3)
Experimental: Experiments were carried out at 25°C using a VP-ITC titration calorimeter (Microcal Inc., Northampton, Massachusetts). […] Obtained data were corrected with the heat changes measured for the injection of ligand into buffer. Data were normalized with the protein concentration (Bradford assay) and fitted with the “One Binding Site” model of the MicroCal version of the ORIGIN 7.0 software (OriginLab Corporation, Northampton, MA, United States), leaving all parameters floating.

[1] = target: the molecule itself; test: AUC; sedimentation velocity with saturating quinate or shikimate (400 uM), 40,000 rpm, 10°C, analysis buffer (5 mM PIPES, 5 mM MES, 5 mM Tris-HCl, pH 8.0)
[2] = target: the molecule itself; test: AUC; multi-speed, multi-wavelength sedimentation equilibrium, ligand-free protein, six concentrations 15-280 uM, 12,000, 14,000 and 18,000 rpm, 10°C, analysis buffer pH 8.0; global fit to a monomer-dimer self-association model (SEDPHAT); dimer to monomers

**Q.** With `CC(=O)O` [Acetate] as the molecule, how does the Kd (McpS) read?
**A.** 574 µM

**Q.** What about the Kd (McpP) of the same molecule?
**A.** 34 µM

**Q.** Which “decrease of the dimer self-association constant, factor” value (Tar-LBD) does the source give for `N[C@@H](CC(=O)O)C(=O)O` [aspartate] here?
**A.** around 100

**Q.** Which “binding to recombinant LBD” value (MCP2983) does the source give for `O=C(O)/C=C(/CC(=O)O)C(=O)O` [cis-aconitate] here?
**A.** recognized

**Q.** And the KD (PcaY_PP-LBD)?
**A.** did not show any binding

B1: PcaY_PP-LBD, recombinant ligand binding domain of the PcaY_PP (PP2643) chemoreceptor of Pseudomonas putida KT2440 (domain or fragment, UniProt Q88JK6 44-196, looked up)
chain: GSDQQITELDQTAHQSDRLNNALLMAIRSSANVSSGFIEQLGGHDESAGKRMALSVELNNKSQALVDEFVENAREPALRGLATELQATFAEYAKAVAGQREATRQRSLEQYFKVNSDAGNAMGRLQTLRQQLVTTLSERGQQIMLESDRRLAR
notes: Cloned NdeI/BamHI into pET28b with a stop codon in the reverse primer; No tag removal is described
**Q.** Which results are given for B1?
**A.** stoichiometry N [1]: 2; Kd [2]: 57.5 µM
